The values that follow come from patent publication US10695331B2, “Veterinary composition comprising imidacloprid, moxidectin and praziquantel for cutaneous topical application (spot on), for the treatment and prevention of ecto and endoparasitoses affecting dogs” (LABYES USA, LLC, priority 2016, dated 2020).

For data set [1] the following is noted: pigs; cited from earlier work.
For data set [2] the following is noted: sheep; cited from earlier work.
For data set [3] the following is noted: cows; cited from earlier work.
The conditions of data set [4]: oral, 0.5 and 2.0 mg/kg/12 hours, 36 days; increase of four times the original dose; cited from earlier work.
For data set [5] the following is noted: in vivo; cited from earlier work.
The conditions of data set [6]: dogs; cited from earlier work.
For data set [7] the following is noted: subcutaneous administration, 5 mg/kg, Xie et al. 2011; cited from earlier work.
The conditions of data set [8]: cited from earlier work.
Another data set can be described thus: in vivo. As to conditions: dog. As for the experimental part: In a period not longer than 2 hours, all of the samples were sent to the Laboratory, where they were centrifuged, and their plasma separated and frozen to −20° C. until the samples were quantified.
For data set [9] the following is noted: percutaneous, cats (Sarasola, 2002); cited from earlier work.
The conditions of data set [10]: percutaneous, dogs (Sarasola, 2002); cited from earlier work.
Where [11] appears, read: Plasma concentrations of Praziquantel.

Like-named read-outs stand apart in the source and are kept apart here.

Turning to `CO/N=C1\C[C@]2(C[C@@H]3C[C@@H](C/C=C(\C)C[C@@H](C)/C=C/C=C4\CO[C@@H]5[C@H](O)C(C)=C[C@@H](C(=O)O3)[C@]45O)O2)O[C@H](/C(C)=C/C(C)C)[C@H]1C` [Moxidectin], the half-life of elimination was 12 h in data set [1], 64.8 h in data set [2], 67.2 h in data set [3] and 43.2 h in [6]. Also, the “average increase of the concentrations in plasma” value in [4] was “more than 8 times”. Moreover, the “time of plasma spikes” value in data set [5] is 3 to 5 h.

As usually defined, the Cmax is the highest concentration seen after dosing. The term Tmax denotes the time from dosing to the highest level. A word on the AUC: it is concentration integrated over time. Read a low AUC as low exposure. In the case of `O=C(C1CCCCC1)N1CC(=O)N2CCc3ccccc3C2C1` (stereo not shown) [Praziquantel], in [7], the Cmax was 47.82 ng/mL, the time to peak (Tmax) is 1.45 h and the “plasma values after 48 hours” value is listed as “below 10 ng/ml”. Further, in [8] (oral dose), the “part of an oral dose excreted with no changes” value is “less than 1%”. Besides, the “concentration in tissues and plasma” value in data set [8] (up to) is recorded as 14-20%. Besides, the “Plasma concentrations of Praziquantel” value in the data set “in vivo” (0 h) is 0.0 ng/mL. Moreover, the “time up to which plasma concentrations are detectable” value in “in vivo” (14.5 mg/kg) is given as “up to 48 hours”. In addition, in “in vivo” (setting [11]), the concentration at 0 h was 0 ng/mL and the concentration at 6 h came to 63.7 ng/mL. In addition, in the data set “in vivo” (topical or ocular, 14.5 mg/kg), the “AUC/inf, Max” value turned out to be 1321; the “AUC/inf, Min” value came to 626.6; the “CMAX, Min” value is 38.6 ng/mL; the “TMAX, Min” value worked out at 4 h. The time of peak concentration (Tmax) in the data set “in vivo” (topical or ocular, 14.5 mg/kg) was 4 h. In the data set “in vivo” (topical or ocular, 14.5 mg/kg, AUC/inf, Median), the AUC was found to be 997 ng·h/mL. This compound also showed a Cmax in the data set “in vivo” (topical or ocular, 14.5 mg/kg, Max) of 77.6 ng/mL. In the data set “in vivo” (topical or ocular, 14.5 mg/kg, Median), the peak concentration (Cmax) amounted to 53.9 ng/mL. Further, the time of peak concentration (Tmax) in “in vivo” (topical or ocular, 14.5 mg/kg, TMAX) is 6 h. In addition, the time of peak concentration (Tmax) in the data set “in vivo” (topical or ocular, 14.5 mg/kg, TMAX, Median) was found to be 5 h. Besides, the Tmax in “in vivo” (topical or ocular, 14.5 mg/kg, Tmax range) lay in the range of 4 to 6 h.

What is called bioavailability is the share of a dose that reaches the circulation, judged against a reference dose that is usually intravenous. Turning to `CO[C@H]1C[C@H](O[C@@H]2/C(C)=C/C[C@@H]3C[C@@H](C[C@]4(CC[C@H](C)[C@@H](C5CCCCC5)O4)O3)OC(=O)[C@@H]3C=C(C)/C(=N/O)[C@H]4OC/C(=C\C=C\[C@@H]2C)[C@]43O)O[C@@H](C)[C@@H]1O` [Selamectin], the bioavailability in [9] is 74%; in data set [10], 4%.
